Source: US20140271604A1, “HDAC Inhibitor Polymorphic Forms and Methods of Use” (priority 2013, published 2014)
Entries after “also recorded” stand apart in the source; their conditions may differ. One block for each compound: values may come before it.

Legend:
[1] = Concentration of saturated AR42 stock solutions (anti-solvent addition crystallization); format: physicochemical; settings: equilibrated 24 hours, filtered
Protocol: Tables 3-5 illustrate anti-solvent addition crystallization experiments conducted on the indicated Form. In this example, saturated solutions of AR42 were prepared in the following solvents: Acetone, 2-Butanone, Methanol, Ethanol, Isopropanol, Acetonitrile, 1,4-Dioxane and Dimethylformamide. Excess AR42 was added to the solvent and the suspension equilibrated for 24 hours. After equilibration, the suspension was filtered through a […] filter to remove particulate solids.
An equal volume of anti-solvent selected from the following list was added to 300 μL of the saturated solutions of AR42: Toluene, Nitrobenzene, Nitromethane, Water, n-Heptane, Cyclohexane. An additional 300 μL of anti-solvent was added if no precipitation occurred. Aliquots of 300 μL of anti-solvent were added until precipitation occurred or the total volume was 1,200 μL of anti-solvent. The solution was allowed to incubate for 60 minutes at room temperature in between the addition of anti-solvent. If no precipitation occurred after the last addition of anti-solvents, samples were incubated for 24 hours at 4° C. Samples in which precipitation occurred were centrifuged for 10 minutes at 3000 rpm to separate the liquid from the solid. The liquid phase was removed and the solid phase dried and analyzed by XRPD. The solutions in which no precipitation occurred were placed under deep vacuum and dried to completion. Solids were collected and analysed by XRPD.

[2] = test system: tumors; settings: cited from earlier work
[3] = Solubility assessment experiments in organic solvents
Protocol: (§1) Solubility assessment experiments were carried out in a variety of solvents followed by storage in a climate chamber for 48 to 72 hours at 40 degrees centigrade and 75% relative humidity.

[4] = Stability study in climate chamber (48-72 h, 40° C./75% RH), form assigned by XRPD; settings: for XRPD Form b: form assigned after the stability studies / XRPD Form c: form assigned after the stability studies: at 40° C./75% RH; for XRPD Form b: form assigned after the stability studies: samples from anti-solvent addition, label = form before stability
Protocol: as §1

[5] = Storage of samples under ambient conditions, form assigned by XRPD; format: physicochemical
[6] = 48-72 H, samples from cooling-evaporative crystallization, Table 6, label = form after recrystallization
[7] = 1-1.5 weeks ambient, cooling-evaporative crystallization, Table 6, label = form after recrystallization
[8] = 1.5-2 weeks ambient, solvent-drop grinding, Table 8, label = form after grinding
[9] = 46-72 H, samples from solvent-drop grinding, Table 8, label = form after grinding
[10] = 1-1.5 weeks ambient, cooling-evaporative crystallization, Table 7, label = form after recrystallization
[11] = 48-72 H, samples from cooling-evaporative crystallization, Table 7, label = form after recrystallization
[12] = 1-1.5 weeks ambient, slurry conversion, Table 9, label = form after slurry
[13] = 48-72 H, samples from slurry conversion, Table 9, label = form after slurry

Structure (SMILES): CC(C)[C@H](C(=O)Nc1ccc(C(=O)NO)cc1)c1ccccc1 [AR-42, (S)—N-hydroxy-4-(3-methyl-2-phenylbutanamido)benzamide]
- Concentration (mg/mL) of saturated stock solution ([1]; stock solvent Acetone): 175.9 mg/mL
- Concentration (mg/mL) of saturated stock solution ([1]; stock solvent Acetonitrile): 13.5 mg/mL
- Concentration (mg/mL) of saturated stock solution ([1]; stock solvent Butanone 2-): 130.7 mg/mL
- Concentration (mg/mL) of saturated stock solution ([1]; stock solvent Dimethylformamide N,N-): 335 mg/mL
- Concentration (mg/mL) of saturated stock solution ([1]; stock solvent Dioxane, 1,4-): 46.8 mg/mL
- Concentration (mg/mL) of saturated stock solution ([1]; stock solvent Ethanol): 134.1 mg/mL
- Concentration (mg/mL) of saturated stock solution ([1]; stock solvent Propanol 2-): 227.8 mg/mL
- Concentration (mg/mL) of saturated stock solution ([1]; stock solvent methanol): 390.5 mg/mL
- Inhibitory effect in tumors ([2]; breast, prostate, ovarian, blood cell, liver, and brain tumors): demonstrated inhibitory effect
- Potency and activity compared to vorinostat (SAHA) ([2]; solid tumors and hematological malignancies): greater potency and activity
- Concentration ([3]; Table 1, solvent Chloroform): <2000 µg/mL
- Concentration ([3]; Table 1, solvent Nitromethane): 1000 µg/mL
- Concentration ([3]; Table 1, solvent Toluene): <1000 µg/mL
- Concentration ([3]; Table 1, solvent Trifluoroethanol, 2,2,2-): 7000 µg/mL

Structure (SMILES): CC(C)[C@H](C(=O)Nc1ccc(C(=O)NO)cc1)c1ccccc1 [Am_oily]
- Concentration ([3]; Table 1, solvent NMP): 482500 µg/mL
- XRPD Form b: form assigned after the stability studies ([4]; 48-72 H, Table 5): Form A

Structure (SMILES): CC(C)C(C(=O)Nc1ccc(C(=O)NO)cc1)c1ccccc1 (centres unmarked) [Form A + Am]
- XRPD Form b: form assigned after storage under ambient conditions ([5]; 1-1.5 weeks ambient, cooling-evaporative crystallization, Table 6, label = form after recrystallization, experiment ML13, solvent 1 Butyl Acetate): Form U1 + Am*
- XRPD Form b: form assigned after storage under ambient conditions ([5]; 1-1.5 weeks ambient, cooling-evaporative crystallization, Table 6, label = form after recrystallization, experiment ML14, solvent 1 Chlorobenzene): Form A_wet**
- Concentration ([3]; Table 1, solvent Amyl Ether): <1000 µg/mL
- XRPD Form c: form assigned after the stability studies [4, 6]: Form A + Am*

Structure (SMILES): CC(C)C(C(=O)Nc1ccc(C(=O)NO)cc1)c1ccccc1 (centres unmarked) [Form A + Form B1]
- XRPD Form b: form assigned after storage under ambient conditions [5, 7]: Form B1_wet**
- XRPD Form b: form assigned after storage under ambient conditions [5, 8]: Form A_wet**
- Concentration ([3]; Table 2, solvent Acetone): 108900 µg/mL
- XRPD Form c: form assigned after the stability studies [4, 9]: Form A
- XRPD Form c: form assigned after the stability studies [4, 6]: Form A_wet**

Structure (SMILES): CC(C)[C@H](C(=O)Nc1ccc(C(=O)NO)cc1)c1ccccc1 [Form A, (S)—N-hydroxy-4-(3-methyl-2-phenylbutanamido)benzamide]
- XRPD Form b: form assigned after storage under ambient conditions [5, 7]: Form A
- XRPD Form b: form assigned after storage under ambient conditions [5, 10]: Form A
- XRPD Form b: form assigned after storage under ambient conditions ([5]; 1.5-2 weeks ambient, solvent-drop grinding, Table 8, label = form after grinding, ground with a drop of Octanol-1): Form A
- XRPD Form b: form assigned after storage under ambient conditions ([5]; 1.5-2 weeks ambient, solvent-drop grinding, Table 8, label = form after grinding, ground with a drop of Propyl acetate): Form A5a
- Concentration ([3]; Table 2, solvent Amyl Ether): 18400 µg/mL
- Concentration ([3]; Table 2, solvent Dimethyl-4-heptanone 2,6-): 20300 µg/mL
- Concentration ([3]; Table 2, solvent Hexafluorobenzene): 21400 µg/mL
- Concentration ([3]; Table 2, solvent Nitromethane): 21200 µg/mL
- Concentration ([3]; Table 2, solvent Toluene): 18800 µg/mL
- Concentration ([3]; Table 2, solvent Trifluoroethanol, 2,2,2-): 20600 µg/mL
- XRPD Form c: form assigned after the stability studies [4, 9]: Form A
- XRPD Form b: form assigned after the stability studies ([4]; 48-72 H, Table 3): Form A
- XRPD Form c: form assigned after the stability studies [4, 11]: Form A

Structure (SMILES): CC(C)[C@H](C(=O)Nc1ccc(C(=O)NO)cc1)c1ccccc1 [Form A_wet]
- XRPD Form b: form assigned after storage under ambient conditions ([5]; 1-1.5 weeks ambient, cooling-evaporative crystallization, Table 6, label = form after recrystallization, experiment ML7, solvent 1 Dichloroethane): Form A
- XRPD Form b: form assigned after storage under ambient conditions ([5]; 1-1.5 weeks ambient, cooling-evaporative crystallization, Table 6, label = form after recrystallization, experiment ML8, solvent 1 Fluorbenzene): Form A_wet**
- XRPD Form b: form assigned after storage under ambient conditions ([5]; 1-1.5 weeks ambient, cooling-evaporative crystallization, Table 6, label = form after recrystallization, experiment ML32, solvent 1 Heptane, N-): Form U1 + Am*
- XRPD Form b: form assigned after storage under ambient conditions [5, 8]: Form A_wet**
- Concentration ([3]; Table 1, solvent Hexafluorobenzene): <1000 µg/mL
- XRPD Form c: form assigned after the stability studies [4, 9]: Form A
- XRPD Form b: form assigned after the stability studies ([4]; 48-72 H, Table 3): Form A + Am*

Structure (SMILES): CC(C)C(C(=O)Nc1ccc(C(=O)NO)cc1)c1ccccc1 (centres unmarked) [Form B1 + Form D1]
- Concentration ([3]; Table 2, solvent Dioxane, 1,4-): 32300 µg/mL

Structure (SMILES): CC(C)[C@H](C(=O)Nc1ccc(C(=O)NO)cc1)c1ccccc1 [Form B1, (S)—N-hydroxy-4-(3-methyl-2-phenylbutanamido)benzamide]
- XRPD Form b: form assigned after storage under ambient conditions [5, 10]: Form B1
- Concentration ([3]; Table 1, solvent Dimethyl-4-heptanone 2,6-): 2000 µg/mL
- Concentration ([3]; Table 2, solvent Chloroform): 20800 µg/mL
- XRPD Form c: form assigned after the stability studies [4, 11]: Form B1
- Stability after storage in a climate chamber ([4]; 48 to 72 hours at 40 degrees centigrade and 75% relative humidity): exhibited a particular degree of stability

More lines, main results first:

- XRPD Form b: form assigned after storage under ambient conditions [5, 10]: Form B1_wet**
- XRPD Form b: form assigned after storage under ambient conditions [5, 12]: Form B1
- Concentration ([3]; Table 2, solvent Isophorone): 243700 µg/mL
- XRPD Form c: form assigned after the stability studies [4, 13]: Form A5a
Structure (SMILES): CC(C)[C@H](C(=O)Nc1ccc(C(=O)NO)cc1)c1ccccc1 [Form B1_wet]

- Concentration ([3]; Table 2, solvent Dimethyl Sulfoxide): 472500 µg/mL
Structure (SMILES): CC(C)[C@H](C(=O)Nc1ccc(C(=O)NO)cc1)c1ccccc1 [Form C, (S)—N-hydroxy-4-(3-methyl-2-phenylbutanamido)benzamide]

- XRPD Form b: form assigned after storage under ambient conditions [5, 10]: Form D1
- XRPD Form b: form assigned after storage under ambient conditions [5, 8]: Form D1
- Concentration ([3]; Table 2, solvent Nitrobenzene): 19700 µg/mL
- XRPD Form c: form assigned after the stability studies [4, 9]: Form A
- XRPD Form b: form assigned after the stability studies ([4]; 48-72 H, Table 5): Form D2 + Am*
- XRPD Form c: form assigned after the stability studies [4, 11]: Form A
Structure (SMILES): CC(C)[C@H](C(=O)Nc1ccc(C(=O)NO)cc1)c1ccccc1 [Form D1, (S)—N-hydroxy-4-(3-methyl-2-phenylbutanamido)benzamide]

- XRPD Form b: form assigned after storage under ambient conditions [5, 7]: Form U2 + Am*
- XRPD Form c: form assigned after the stability studies [4, 6]: Form A_wet**
Structure (SMILES): CC(C)[C@H](C(=O)Nc1ccc(C(=O)NO)cc1)c1ccccc1 [Form X_gel, (S)—N-hydroxy-4-(3-methyl-2-phenylbutanamido)benzamide]

- XRPD Form b: form assigned after storage under ambient conditions [5, 12]: Form M2 + Am*
- XRPD Form c: form assigned after the stability studies [4, 13]: Form M2
Structure (SMILES): CC(C)C(C(=O)Nc1ccc(C(=O)NO)cc1)c1ccccc1 (centres unmarked) [Form Y + Am]

- XRPD Form b: form assigned after storage under ambient conditions [5, 7]: Form U1 + Am*
- XRPD Form c: form assigned after the stability studies [4, 6]: Form Z_wet**
Structure (SMILES): CC(C)[C@H](C(=O)Nc1ccc(C(=O)NO)cc1)c1ccccc1 [Form Z_wet]

- XRPD Form b: form assigned after storage under ambient conditions [5, 7]: Form D1_wet**
- XRPD Form c: form assigned after the stability studies [4, 6]: Form A
Structure (SMILES): CC(C)[C@H](C(=O)Nc1ccc(C(=O)NO)cc1)c1ccccc1 [Wet sample]
- XRPD Form b: form assigned after the stability studies ([4]; 48-72 H, Table 3): Form A + Am*; also recorded: Form W + Am*
